Key:
DIGSA = experiment: Post-emergence herbicidal effect, greenhouse pot test; format: in vivo, Digitaria sanguinalis; conditions: 320 g/ha, visual rating about 3 weeks after treatment
Method in brief: (§1)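 Greenhouse pot plants in sandy loam receive a one-leaf-stage spray at 20 to 320 g/ha. Activity is assessed visually around 3 weeks afterwards on a 0–100% scale, where 100% means the plants have died.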

KCHSC = experiment: as above; format: in vivo
Method in brief: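 Visual rating of activity against untreated plants (100% = plants died, 0% = no effect), done about 3 weeks after treatment. Compounds applied at 20–320 g/ha as aqueous spray (600 l/ha, 0.5% additive) from WP or EC formulations onto one-leaf-stage plants grown in sandy loam under greenhouse conditions.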

ALOMY = experiment: as above; format: in vivo, Alopecurus myosuroides; conditions: visual rating about 3 weeks after treatment
Method in brief: as §1

AVEFA = experiment: as above; format: in vivo, Avena fatua; conditions: visual rating about 3 weeks after treatment
Method in brief: as §1

LOLRI = experiment: as above; format: in vivo, Lolium rigidum
Method in brief: as §1

POLCO = experiment: as above; format: in vivo, Fallopia convolvulus
Method in brief: as §1

ECHCG = experiment: as above; format: in vivo, Echinochloa crus-galli
Method in brief: as §1

VERPE = experiment: as above; format: in vivo, Veronica persica
Method in brief: as §1

ABUTH = experiment: as above; format: in vivo, Abutilon theophrasti; conditions: visual rating about 3 weeks after treatment
Method in brief: as §1

SETVI = experiment: as above; format: in vivo, Setaria viridis
Method in brief: as §1

PHBPU = experiment: as above; format: in vivo, Ipomoea purpurea
Method in brief: as §1

VIOTR = experiment: as above; format: in vivo, Viola tricolor
Method in brief: as §1

AMARE = experiment: as above; format: in vivo, Amaranthus retroflexus; conditions: Amaranthus retroflexus, 504 h, visual rating about 3 weeks after treatment, read-out: Post-emergence effect against AMARE
Method in brief: as §1

ZEAMX = experiment: Post-emergence herbicidal effect and crop plant compatibility, greenhouse pot test; format: in vivo, Zea mays; conditions: one-leaf stage, rated visually after about 3 weeks vs untreated controls
Method in brief: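 Visual % activity scored roughly 3 weeks post-spray against untreated plants, where 100% means death and 0% equals control. Plants were treated at the one-leaf stage, 2 to 3 weeks after sowing in sandy loam, at 20 to 320 g/ha.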

MATIN = experiment: Post-emergence herbicidal effect, greenhouse pot test; format: in vivo, Tripleurospermum inodorum; conditions: Tripleurospermum inodorum, 504 h, read-out: Post-emergence effect against MATIN in %
Method in brief: as §1

[1] = 504 h, read-out: Post-emergence effect against KCHSC in %

In the case of `COC(Oc1nn(-c2ncccc2F)c(-c2ccc(F)nc2)c1C1CC1)C(=O)O` (stereo not shown) [Example I-90], the “Post-emergence effect against DIGSA” value (DIGSA) is reported as 80%, the “Post-emergence effect against KCHSC in %” value (KCHSC; 320 g/ha) is reported as 90% and the pest or weed control at 20 g/ha (KCHSC; [1]) is reported as 80%. For the same compound, the pest or weed control at 80 g/ha (KCHSC; [1]) was 90%, the “Post-emergence effect against ALOMY” value (ALOMY; 320 g/ha) was 90% and the “Post-emergence effect against AVEFA” value (AVEFA; 320 g/ha) was 90%. The “Post-emergence effect against LOLRI in %” value (LOLRI; 320 g/ha) was 90%, the “Post-emergence effect against POLCO in %” value (POLCO; 320 g/ha) was 80% and the “Post-emergence effect against ECHCG in %” value (ECHCG; 80 g/ha) was 90%. For the same compound, the “Post-emergence effect against ECHCG in %” value (ECHCG; 320 g/ha) was 90%, the “Post-emergence effect against VERPE in %” value (VERPE; 320 g/ha) was 80% and the “Post-emergence effect against ABUTH” value (ABUTH; 320 g/ha) was 90%. For the same compound, the “Post-emergence effect against SETVI in %” value (SETVI; 320 g/ha) was 90%, the “Post-emergence effect against PHBPU in %” value (PHBPU; 320 g/ha) was 90% and the “Post-emergence effect against VIOTR in %” value (VIOTR; 320 g/ha) was 90%. For the same compound, the pest or weed control at 320 g/ha (AMARE) was 80%, the “Post-emergence effect at 20 g/ha against ZEAMX in %” value (ZEAMX; 20 g/ha) was 0% and the “Post-emergence effect at 80 g/ha against ZEAMX in %” value (ZEAMX; 80 g/ha) was 0%. The “Post-emergence effect at 320 g/ha against ZEAMX in %” value (ZEAMX; 320 g/ha) was 0%.

`CCOC(=O)C(OC)Oc1nn(-c2ncccc2F)c(-c2cncc(F)c2)c1C1CC1` (stereo not shown) [Example I-113] gave a pest or weed control at 320 g/ha (DIGSA; Digitaria sanguinalis, 504 h, read-out: Post-emergence effect against DIGSA) of 90%, a pest or weed control at 20 g/ha (KCHSC; [1]) of 90% and a pest or weed control at 80 g/ha (KCHSC; [1]) of 90%. For the same compound, the pest or weed control at 320 g/ha (KCHSC; 504 h, 320 g/ha, read-out: Post-emergence effect against KCHSC in %) was 90%, the pest or weed control at 80 g/ha (ALOMY; Alopecurus myosuroides, 504 h, 80 g/ha, read-out: Post-emergence effect against ALOMY) was 100% and the pest or weed control at 320 g/ha (ALOMY; Alopecurus myosuroides, 504 h, 320 g/ha, read-out: Post-emergence effect against ALOMY) was 100%. For the same compound, the pest or weed control at 20 g/ha (AVEFA; Avena fatua, 504 h, 20 g/ha, read-out: Post-emergence effect against AVEFA) was 80%, the pest or weed control at 80 g/ha (AVEFA; Avena fatua, 504 h, 80 g/ha, read-out: Post-emergence effect against AVEFA) was 100% and the pest or weed control at 320 g/ha (AVEFA; Avena fatua, 504 h, 320 g/ha, read-out: Post-emergence effect against AVEFA) was 100%. It also gave a pest or weed control at 80 g/ha (LOLRI; Lolium rigidum, 504 h, 80 g/ha, read-out: Post-emergence effect against LOLRI in %) of 90%, a pest or weed control at 320 g/ha (LOLRI; Lolium rigidum, 504 h, 320 g/ha, read-out: Post-emergence effect against LOLRI in %) of 100% and a pest or weed control at 80 g/ha (POLCO; Fallopia convolvulus, 504 h, 80 g/ha, read-out: Post-emergence effect against POLCO in %) of 80%. It also gave a pest or weed control at 320 g/ha (POLCO; Fallopia convolvulus, 504 h, 320 g/ha, read-out: Post-emergence effect against POLCO in %) of 80%, a pest or weed control at 20 g/ha (ECHCG; Echinochloa crus-galli, 504 h, 20 g/ha, visual rating about 3 weeks after treatment, read-out: Post-emergence effect against ECHCG) of 90% and a pest or weed control at 80 g/ha (ECHCG; Echinochloa crus-galli, 504 h, 80 g/ha, read-out: Post-emergence effect against ECHCG in %) of 90%. It also gave a pest or weed control at 320 g/ha (ECHCG; Echinochloa crus-galli, 504 h, 320 g/ha, read-out: Post-emergence effect against ECHCG in %) of 90%, a pest or weed control at 20 g/ha (VERPE; Veronica persica, 504 h, 20 g/ha, read-out: Post-emergence effect against VERPE in %) of 80% and a pest or weed control at 80 g/ha (VERPE; Veronica persica, 504 h, 80 g/ha, read-out: Post-emergence effect against VERPE in %) of 90%. For the same compound, the pest or weed control at 320 g/ha (VERPE; Veronica persica, 504 h, 320 g/ha, read-out: Post-emergence effect against VERPE in %) was 90%, the pest or weed control at 20 g/ha (ABUTH; Abutilon theophrasti, 504 h, 20 g/ha, read-out: Post-emergence effect against ABUTH) was 90% and the pest or weed control at 80 g/ha (ABUTH; Abutilon theophrasti, 504 h, 80 g/ha, read-out: Post-emergence effect against ABUTH) was 90%. The pest or weed control at 320 g/ha (ABUTH; Abutilon theophrasti, 504 h, 320 g/ha, read-out: Post-emergence effect against ABUTH) was 90%, the pest or weed control at 80 g/ha (MATIN; 80 g/ha) was 80% and the pest or weed control at 320 g/ha (MATIN; 320 g/ha) was 80%. For the same compound, the pest or weed control at 20 g/ha (SETVI; Setaria viridis, 504 h, 20 g/ha, read-out: Post-emergence effect against SETVI in %) was 90%, the pest or weed control at 80 g/ha (SETVI; Setaria viridis, 504 h, 80 g/ha, read-out: Post-emergence effect against SETVI in %) was 90% and the pest or weed control at 320 g/ha (SETVI; Setaria viridis, 504 h, 320 g/ha, read-out: Post-emergence effect against SETVI in %) was 90%. It also gave a pest or weed control at 20 g/ha (PHBPU; Ipomoea purpurea, 504 h, 20 g/ha, read-out: Post-emergence effect against PHBPU in %) of 90%, a pest or weed control at 80 g/ha (PHBPU; Ipomoea purpurea, 504 h, 80 g/ha, read-out: Post-emergence effect against PHBPU in %) of 90% and a pest or weed control at 320 g/ha (PHBPU; Ipomoea purpurea, 504 h, 320 g/ha, read-out: Post-emergence effect against PHBPU in %) of 100%. It also gave a pest or weed control at 20 g/ha (VIOTR; Viola tricolor, 504 h, 20 g/ha, read-out: Post-emergence effect against VIOTR in %) of 90%, a pest or weed control at 80 g/ha (VIOTR; Viola tricolor, 504 h, 80 g/ha, read-out: Post-emergence effect against VIOTR in %) of 90% and a pest or weed control at 320 g/ha (VIOTR; Viola tricolor, 504 h, 320 g/ha, read-out: Post-emergence effect against VIOTR in %) of 90%. The pest or weed control at 20 g/ha (AMARE; 20 g/ha) was 80%, the pest or weed control at 80 g/ha (AMARE; 80 g/ha) was 80% and the pest or weed control at 320 g/ha (AMARE) was 80%.

Source: patent publication US20240391862A1, “(1,4,5-TRISUBSTITUTED-1H-PYRAZOL-3-YL)OXY-2-ALKOXY ALKYL ACIDS AND THEIR DERIVATIVES, THEIR SALTS AND THEIR USE AS HERBICIDAL AGENTS” (Bayer AKtiengesellschaft, priority 2021, published 2024)
